Assays:
[1] = molecular target: T1, OX2 (Homo sapiens, UniProt O43614); experiment: Orexin-receptor binding ability, [125I]-OX-A, CHO cell membranes expressing OX2; set-up: expressed in transfected cells; host or cells: CHO cells (membrane preparation); conditions: membranes of recombinant CHO cells, 0.2 nM [125I]-OX-A tracer; read-out: OX2 (IC50)
T1 sequence (O43614 1-444): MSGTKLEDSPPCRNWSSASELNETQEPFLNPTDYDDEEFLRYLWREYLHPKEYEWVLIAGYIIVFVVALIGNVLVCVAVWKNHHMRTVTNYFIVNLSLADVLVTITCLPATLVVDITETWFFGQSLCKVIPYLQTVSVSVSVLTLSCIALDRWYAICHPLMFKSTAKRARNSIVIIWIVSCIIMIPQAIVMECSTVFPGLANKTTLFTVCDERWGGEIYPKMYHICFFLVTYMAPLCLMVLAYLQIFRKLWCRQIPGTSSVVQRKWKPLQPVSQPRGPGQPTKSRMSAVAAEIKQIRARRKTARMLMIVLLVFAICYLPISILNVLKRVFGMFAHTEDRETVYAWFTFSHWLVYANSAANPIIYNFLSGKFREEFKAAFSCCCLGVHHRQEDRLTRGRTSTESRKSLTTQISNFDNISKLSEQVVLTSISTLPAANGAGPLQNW
Protocol: (§1) The assay was carried out using a 96-well Wheat Germ Agglutinin Flash Plate (PerkinElmer). The volume in a single assay well was 100 ul, and the composition of the reaction solution was as follows:
(§2) 25 mM HEPES (pH 7.5), 1 mM CaCl2, 4.5 mM MgCl2, 0.5% BSA (bovine serum albumin), 0.1% sodium azide, 0.05% Tween-20, and 0.2% DMSO.
Cell membranes were prepared from recombinant CHO cells that expressed OX2 or OX1. The cell membranes were used in an amount of 5 μg protein/assay. Test compound in various concentrations, and 0.2 nM [^125I]-OX-A as tracer were added to the cell membranes, and then allowed to react at room temperature for 30 minutes. After completion of the reaction, the reaction solution as a whole was discarded, and the wells were then washed once with 200 ul of wash buffer (25 mM HEPES (pH 7.5), 1 mM CaCl2, 5 mM MgCl2, 0.5% BSA, 0.1% sodium azide, 0.05% Tween-20, and 525 mM sodium chloride). Finally, the radioactivity of each well was measured using a scintillation counter (TopCount, PerkinElmer). The obtained results are shown in terms of IC50 values (nM) in the following table.

[2] = molecular target: T2, OX1 (Homo sapiens, UniProt O43613); experiment: Orexin-receptor binding ability, [125I]-OX-A, CHO cell membranes expressing OX1; set-up: expressed in transfected cells; host or cells: CHO cells (membrane preparation); conditions: membranes of recombinant CHO cells, 0.2 nM [125I]-OX-A tracer; read-out: OX1 (IC50)
T2 sequence (O43613 1-425): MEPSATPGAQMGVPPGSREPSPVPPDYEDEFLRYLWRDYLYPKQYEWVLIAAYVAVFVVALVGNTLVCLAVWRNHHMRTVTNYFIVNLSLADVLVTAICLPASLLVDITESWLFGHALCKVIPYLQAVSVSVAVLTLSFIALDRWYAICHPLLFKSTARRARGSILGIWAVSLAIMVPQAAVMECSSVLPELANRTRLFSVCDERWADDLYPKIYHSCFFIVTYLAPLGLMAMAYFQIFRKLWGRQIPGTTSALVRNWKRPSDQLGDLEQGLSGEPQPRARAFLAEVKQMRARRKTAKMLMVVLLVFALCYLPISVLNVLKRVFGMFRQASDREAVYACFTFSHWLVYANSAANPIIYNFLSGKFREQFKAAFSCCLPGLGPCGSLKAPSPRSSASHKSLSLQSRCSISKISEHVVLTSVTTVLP
Protocol: as §1, §2
Cell membranes were prepared from recombinant CHO cells that expressed OX2 or OX1. The cell membranes were used in an amount of 5 μg protein/assay. […] Finally, the radioactivity of each well was measured using a scintillation counter (TopCount, PerkinElmer). The obtained results are shown in terms of IC50 values (nM) in the following table.

IC50 [1] [nM]	IC50 [2] [nM]	Compound
71	1330	Cc1nc(C(F)F)nn1CC[C@@]1(c2ccccc2)C[C@H]1C(=O)Nc1ccc(F)cn1 [Example 109]
89	> 2000	COc1nc(C)n(CCC2(c3ccccc3)CC2C(=O)Nc2ccc(Cl)cn2)n1 (centres unmarked) [Example 116]
45	1310	CCn1cc(OC[C@@]2(c3ccccc3)C[C@H]2C(=O)Nc2ccc(F)cc2)c(C)n1 [Example 71]
55	132	CCn1nc(C)c(OC[C@@]2(c3ccccc3)C[C@H]2C(=O)Nc2ccc(F)cc2)cc1=O [Example 98]
39	771	Cc1cc(NC(=O)[C@@H]2C[C@@]2(COc2cc(=O)n(C)nc2C)c2ccccc2)ncc1F [Example 94]
41	655	Cc1nc(C(F)F)nn1CC[C@@]1(c2ccccc2)C[C@H]1C(=O)Nc1ccc(F)cc1 [Example 111]
55	2250	Cc1csc(NC(=O)[C@@H]2C[C@@]2(CCn2nc(C(F)(F)F)nc2C)c2ccccc2)n1 [Example 124]
8	13	CCn1cc(OC[C@@]2(c3cccc(F)c3)C[C@H]2C(=O)Nc2ccc(C#N)cn2)c(C)n1 [Example 90]
59	1600	Cc1nn(C)c(=O)cc1OC[C@@]1(c2ccccc2)C[C@H]1C(=O)Nc1ccc(Cl)cn1 [Example 95]
36	196	Cc1nc(C(F)F)nn1CC[C@@]1(c2ccccc2)C[C@H]1C(=O)Nc1ccc(Cl)cn1 [Example 110]
69	2130	CCn1cc(OC[C@@]2(c3ccccc3)C[C@H]2C(=O)Nc2ccccn2)c(C)n1 [Example 69]
12	84	CCn1cc(OC[C@@]2(c3cccc(F)c3)C[C@H]2C(=O)Nc2ccc(F)cc2)c(C)n1 [Example 88]
5	1360	COc1cncc(NC(=O)[C@@H]2C[C@@]2(COc2cc(=O)n(C)nc2C)c2ccccc2)c1 [Example 92, (1R,2S)-2-[(1,3-dimethyl-6-oxo-1,6-dihydropyridazin-4-yl)oxymethyl]-N-(5-methoxypyridin-3-yl)-2-phenylcyclopropanecarboxamide]
22	364	CCn1cc(CCC2(c3ccccc3)CC2C(=O)Nc2ccc(Cl)cn2)cn1 (centres unmarked) [Example 102]
7	33	Cc1cnc(OC[C@@]2(c3ccccc3)C[C@H]2C(=O)Nc2ccc(Cl)cn2)c(C)n1 [Example 67]
46	456	COc1cn(CCC2(c3ccccc3)CC2C(=O)Nc2ccc(Cl)cn2)ccc1=O (centres unmarked) [Example 117]
8	59	CCn1cc(OC[C@@]2(c3cccc(F)c3)C[C@H]2C(=O)Nc2ccccn2)c(C)n1 [Example 85]
93	> 200	CCn1cc(OC[C@@]2(c3cccc(F)c3)C[C@H]2C(=O)Nc2cc(OC)c(F)cn2)c(C)n1 [Example 89]
26	57	Cc1cnc(OC[C@@]2(c3ccccc3)C[C@H]2C(=O)Nc2ccc(F)cn2)c(C)n1 [Example 65]
23	266	Cc1nc(C2CC2)nn1CC[C@@]1(c2ccccc2)C[C@H]1C(=O)Nc1ccc(C#N)cn1 [Example 127]
15	682	Cc1nn(C)cc1OCC1(c2ccccc2)CC1C(=O)Nc1ccc(Cl)cn1 (centres unmarked) [Example 83]
33	–	Cc1nc(C(F)F)nn1CC[C@@]1(c2ccccc2)C[C@H]1C(=O)Nc1ccc(C#N)cn1 [Example 112]

Compound	IC50 [1] [nM]	IC50 [2] [nM]
CCn1cc(OC[C@@]2(c3cccc(F)c3)C[C@H]2C(=O)Nc2ccc(F)cn2)c(C)n1 [Example 86]	5	15
CCn1cc(OC[C@@]2(c3cccc(F)c3)C[C@H]2C(=O)Nc2ccc(F)cn2)c(C)n1 [Example 87]	21	136

Reference: US20120165339A1, “CYCLOPROPANE DERIVATIVES” (EISAI R&D MANAGEMENT CO., LTD., priority 2010, published 2012)
